Experimental data reported in patent US10071975B2, “Macrocyclic amidinourea derivatives, methods of preparation and uses thereof as chitinase inhibitors” (CYGNET BIOSCIENCES B.V., priority 2013, dated 2018).
≈ marks a conversion by molar mass, not a printed value.

Legend:
[1] = biological target: chitinase enzyme extracted from Trichoderma viride; assay: Chitinase inhibition assay (NP-GlcNAc substrate); type: biochemical
Experimental: Chitinase inhibition assays were conducted against an example of the GH18 family of chitinases, i.e the chitinase enzyme extracted from Trichoderma viride. This enzyme has an high degree of identity compared to chitinase 4 of Candida albicans, and is commercially available from Sigma-Aldrich (catalogue ID: C8241).
The substrate used was the NP-GlcNAc (Sigma-Aldrich, catalogue ID: N9376) dissolved in MES 50 mM at pH6.0; the final concentration was 250 μM. The enzyme was resuspended at 0.11 mg/ml in MES 50 mM at pH 6.0, with a final concentration for the assay of 73 nM diluting with MES 50 mM and BSA 20 μg/ml at pH 6.0. A stock solution of the inhibitors was prepared at 50 mM in DMSO 100%.
The mixture with the inhibitor at various concentrations and the enzyme was prepared directly into the reading plate and left to incubate at room temperature for 20 minutes or three hours. At the end of the incubation times, the substrate was added and the reading was conducted by recording the values up to a maximum time of 10 minutes. The substrate concentration was measured by reading UV absorption at 300 nm (εM^300: 11100), while, the product of hydrolysis were measured at 400 nm (ΔεM^400: 2120). Both IC50 and Ki can be calculated.

C. kefyr = assay: Antimicrobial susceptibility testing (microdilution MIC90), C. kefyr strains; type: cell-based, Candida kefyr; conditions: Kluyveromyces marxianus; C. kefyr (10 strains tested); 24 h
Experimental: (§1) Sterile plastic microtitration plates containing flat-bottomed wells were used. The plates contained serial dilution of the antifungal agents with a volume of assay medium of 100 μL/well. Two drug-free medium wells were used as sterility and growth controls. The trays were inoculated with 100 μL/well of the final inoculum, with the exception of sterility control wells. […] The microtitration plates were incubated at 37° C. for 24 h. The minimal inhibitory concentrations (MICs) were determined at 24 h both visually and spectrophotometrically measuring the turbidity at 595 nm with a Varian model 1475 spectrophotometer. Results of biological tests are shown in Table 2, biological data are reported as MIC90 that is the minimum concentration required to inhibit the growth of at least the 90% of the strains tested for each species.

C. tropicalis = assay: Antimicrobial susceptibility testing (microdilution MIC90), C. tropicalis strains; type: cell-based; conditions: Candida tropicalis; C. tropicalis (11 strains tested); 24 h
Experimental: as §1

C. glabrata = assay: Antimicrobial susceptibility testing (microdilution MIC90), C. glabrata strains; type: cell-based, Candida glabrata; conditions: Nakaseomyces glabratus; C. glabrata (26 strains tested); 24 h
Experimental: as §1

C. albicans = assay: Antimicrobial susceptibility testing (microdilution MIC90), C. albicans strains; type: cell-based; conditions: Candida albicans; C. albicans (22 strains tested); 24 h, visually and spectrophotometrically
Experimental: as §1

C. guilliermondii = assay: Antimicrobial susceptibility testing (microdilution MIC90), C. guilliermondii strains; type: cell-based, Candida guilliermondii; conditions: Meyerozyma guilliermondii; C. guilliermondii (10 strains tested); 24 h
Experimental: as §1

C. parapsilosis = assay: Antimicrobial susceptibility testing (microdilution MIC90), C. parapsilosis strains; type: cell-based, Candida parapsilosis; conditions: Lodderomyces parapsilosis; C. parapsilosis (24 strains tested); 24 h
Experimental: as §1

C. krusei = assay: Antimicrobial susceptibility testing (microdilution MIC90), C. krusei strains; type: cell-based, Candida krusei; conditions: Pichia kudriavzevii; C. krusei (13 strains tested); 24 h; read-out: MIC90
Experimental: as §1

[2] = tested on: C. albicans fluconazole resistant strains; assay: microbe, parasite or virus in culture; type: cell-based; conditions: Candida albicans, 24 h
[3] = tested on: C. glabrata fluconazole resistant strains; assay: microbe, parasite or virus in culture; type: cell-based, Candida glabrata; conditions: Nakaseomyces glabratus, 24 h
[4] = Enz.-inhib. incubation time 20 min
[5] = Enz.-inhib. incubation time 3 h
[6] = strain DSY284, ERG11 Mutation, mean of three measurements
[7] = strain DSY289, ERG11 Mutation (2)
[8] = strain DSY291, ERG11 Mutation (2)
[9] = strain DSY292, ERG11 Mutation (3)
[10] = strain DSY751, ↑MDR1, ERG11 Mutation

With `CCNC(=N)NCCCCCCN1CCCCCCCCNC(=N)NC1=O` [Compound 38, 1-ethyl-3-[6-(4-imino-2-oxo-1,3,5-triazacyclotridec-1-yl)hexyl]guanidine] the IC50 [1, 4] was 508 µM, the Ki [1, 4] was 164 µM and the IC50 [1, 5] was 140 µM. It also gave a Ki [1, 5] of 45.3 µM.

`C/C=C/CNC(=N)NCCCCCCCCN1CCCCCCOc2ccccc2C(c2cn(-c3ccccc3)nn2)NC(=N)NC1=O` (stereo not shown) [Example 21] gave an MIC90 (C. kefyr) of 64 µg/mL (≈ 97.4 µM), an MIC90 (C. tropicalis) of 64 µg/mL (≈ 97.4 µM) and an MIC90 (C. glabrata) of 64 µg/mL (≈ 97.4 µM). It also gave an MIC90 (C. albicans) of 32 µg/mL (≈ 48.7 µM), an MIC90 (C. guilliermondii) of 32 µg/mL (≈ 48.7 µM) and an MIC90 (C. parapsilosis) of 32 µg/mL (≈ 48.7 µM). It also gave an MIC90 (C. krusei) of 128 µg/mL (≈ 195 µM).

`C[C@@H](c1ncncc1F)[C@](O)(Cn1cncn1)c1ccc(F)cc1F` [VOR, Voriconazole, reference compound] showed an MIC [2, 6] of 4 µg/mL (≈ 11.5 µM), an MIC [2, 7] of 8 µg/mL (≈ 22.9 µM) and an MIC [2, 8] of 0.03 µg/mL (≈ 0.0859 µM). For the same compound, the MIC [2, 9] was 2 µg/mL (≈ 5.73 µM), the MIC ([2]; strain DSY296, ERG11 Mutation) was 8 µg/mL (≈ 22.9 µM) and the MIC ([2]; strain DSY348, ERG11 Mutation) was 0.25 µg/mL (≈ 0.716 µM). The MIC ([2]; strain DSY732, ↑CDR1-CDR2) was 0.25 µg/mL (≈ 0.716 µM), the MIC ([2]; strain DSY735, ↑CDR1-CDR2) was 2 µg/mL (≈ 5.73 µM) and the MIC ([2]; strain DSY750, ↑MDR1) was 0.016 µg/mL (≈ 0.0458 µM). For the same compound, the MIC [2, 10] was 0.25 µg/mL (≈ 0.716 µM), the MIC ([2]; strain DSY775, ERG11 Mutation) was 8 µg/mL (≈ 22.9 µM) and the MIC ([2]; strain DSY2323, ↑CDR2-MDR1) was 0.25 µg/mL (≈ 0.716 µM). For the same compound, the MIC ([3]; strain DSY530, ↑CDR1) was 0.5 µg/mL (≈ 1.43 µM), the MIC ([3]; strain DSY754, ↑CDR1) was 2 µg/mL (≈ 5.73 µM) and the MIC ([3]; strain DSY756, ↑CDR1-CDR2-SNQ2) was 4 µg/mL (≈ 11.5 µM). For the same compound, the MIC ([3]; strain DSY2254, ↑CDR1-CDR2) was 2 µg/mL (≈ 5.73 µM).

`C#CCNC(=N)NCCCCCCN1CCCCCCCCNC(=N)NC1=O` [Compound 39, 1-[6-(4-imino-2-oxo-1,3,5-triazacyclotridec-1-yl)hexyl]-3-prop-2-ynylguanidine] was tested, and the IC50 [1, 4] was 170 µM, the Ki [1, 4] was 55 µM and the IC50 [1, 5] was 97 µM. It also gave a Ki [1, 5] of 31.3 µM.

Work on `C/C=C/CNC(=N)NCCCCCCN1CCCCCCCCNC(=N)NC1=O` [Compound 36, 1-[(E)-but-2-enyl]-3-[6-(4-imino-2-oxo-1,3,5-triazacyclotridec-1-yl)hexyl]guanidine] yielded an IC50 [1, 5] of 111 µM and a Ki [1, 5] of 35.8 µM.

Compound `C/C=C/CNC(=N)NCCCCCCCCN1CCCCCCCCNC(=N)NC1=O` [Compound 35, 1-[(E)-but-2-enyl]-3-[8-(4-imino-2-oxo-1,3,5-triazacyclotridec-1-yl)octyl]guanidine] has an IC50 [1, 4] of 185 µM, a Ki [1, 4] of 59.6 µM and an IC50 [1, 5] of 157 µM. For the same compound, the Ki [1, 5] was 50.8 µM.

Work on `C/C=C/CNC(=N)NCCCCCCCCN1CCCCCOC(=O)CCNC(=N)NC1=O` [Example 19, 1-[(E)-but-2-enyl]-3-[8-(6-imino-2,8-dioxo-1-oxa-5,7,9-triazacyclotetradec-9-yl)octyl]guanidine] yielded an MIC90 (C. kefyr) of 32 µg/mL (≈ 68.7 µM), an MIC [2, 6] of 16 µg/mL (≈ 34.4 µM) and an MIC [2, 7] of 8 µg/mL (≈ 17.2 µM). For the same compound, the MIC [2, 8] was 8 µg/mL (≈ 17.2 µM), the MIC [2, 9] was 16 µg/mL (≈ 34.4 µM) and the MIC ([2]; strain DSY296, ERG11 Mutation) was 16 µg/mL (≈ 34.4 µM). The MIC ([2]; strain DSY348, ERG11 Mutation) was 8 µg/mL (≈ 17.2 µM), the MIC ([2]; strain DSY732, ↑CDR1-CDR2) was 8 µg/mL (≈ 17.2 µM) and the MIC ([2]; strain DSY735, ↑CDR1-CDR2) was 8 µg/mL (≈ 17.2 µM). The MIC ([2]; strain DSY750, ↑MDR1) was 16 µg/mL (≈ 34.4 µM), the MIC [2, 10] was 16 µg/mL (≈ 34.4 µM) and the MIC ([2]; strain DSY775, ERG11 Mutation) was 16 µg/mL (≈ 34.4 µM). The MIC ([2]; strain DSY2323, ↑CDR2-MDR1) was 16 µg/mL (≈ 34.4 µM), the MIC90 (C. tropicalis) was 32 µg/mL (≈ 68.7 µM) and the MIC90 (C. glabrata) was 64 µg/mL (≈ 137 µM). The MIC90 (C. albicans) was 32 µg/mL (≈ 68.7 µM), the MIC90 (C. guilliermondii) was 32 µg/mL (≈ 68.7 µM) and the MIC90 (C. parapsilosis) was 32 µg/mL (≈ 68.7 µM). For the same compound, the MIC90 (C. krusei) was 64 µg/mL (≈ 137 µM), the MIC ([3]; strain DSY530, ↑CDR1) was 64 µg/mL (≈ 137 µM) and the MIC ([3]; strain DSY754, ↑CDR1) was 64 µg/mL (≈ 137 µM). For the same compound, the MIC ([3]; strain DSY756, ↑CDR1-CDR2-SNQ2) was 128 µg/mL (≈ 275 µM), the MIC ([3]; strain DSY2254, ↑CDR1-CDR2) was 128 µg/mL (≈ 275 µM) and the MIC ([3]; strain DSY2271, ↑CDR2) was 64 µg/mL (≈ 137 µM).
